According to patent publication US11214803B2, “Modulators of YAP1 expression” (Ionis Pharmaceuticals, Inc., priority 2019, dated 2022):
Strand notation (5' to 3'): a small letter for the sugar, then the base; units joined by * are phosphorothioate-linked, units joined directly phosphodiester-linked; [ ] holds rarer units or linkages, { } end groups; capitals alone tell only the bases. e = 2'-O-(2-methoxyethyl) (MOE); k = constrained ethyl (cEt); [5mC] = 5-methylcytosine; d = 2'-deoxy (DNA); m = 2'-O-methyl

What follows are substances tested on Yap1 mRNA (assay: Antisense inhibition of human Yap1 in SNU-449 cells by modified oligonucleotides, single dose (Example 5, RTS36584)). Settings: Table 39; SNU-449 cells, 10,000 cells per well, free uptake, 2,000 nM oligonucleotide, approx. 48 hours; RTS36584; normalized to RIBOGREEN; Yap1 mRNA relative to untreated control.
Type: cell-based
In short: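 SNU-449 cells (10,000/well) took up 2,000 nM oligonucleotide by free uptake for about 48 h. Yap1 mRNA was measured by qRT-PCR with primer probe set RTS36584 and normalised to RIBOGREEN total RNA. Values are % of untreated control; asterisked oligos target the amplicon region.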

| Substance | YAP1 (% UTC) |
| --- | --- |
| 1198418 (kT*d[5mC]*dA*dG*dA*dT*dT*dT*dA*dG*dG*kA*eT*kG*e[5mC]*kA; antisense) [Compound 1198418] | 67 |
| 1198399 (kA*dG*d[5mC]*dA*d[5mC]*dT*dT*dT*dT*dA*d[5mC]*kA*eT*kT*eA*kG; antisense) [Compound 1198399] | 35 |

Same assay, conditions: Table 40 (separate experiment); SNU-449 cells, 10,000 cells per well, free uptake, 2,000 nM oligonucleotide, approx. 48 hours; RTS36584; normalized to RIBOGREEN; Yap1 mRNA relative to untreated control

| Substance | YAP1 (% UTC) |
| --- | --- |
| 1198798 (antisense kT*eA*kA*dG*dT*dA*dA*dG*dG*dT*dT*dT*e[5mC]*e[5mC]*k[5mC]*kA) [Compound 1198798] | 38 |
| 1198743 (k[5mC]*eT*kT*dT*dT*dA*d[5mC]*dA*dT*dT*dA*dG*eG*eA*kA*k[5mC]; antisense) [Compound 1198743] | 86 |
| 1198440 (kA*dA*dG*dT*dG*dT*dA*dT*dG*dT*d[5mC]*kA*eG*kA*eA*kG) [Compound 1198440] | 5 |
| 1198784 (antisense kT*eA*kT*dG*dT*dA*dA*dT*dA*dT*dT*dG*e[5mC]*eA*kA*kT) [Compound 1198784] | 94 |

Same assay, conditions: Table 41; SNU-449 cells, 10,000 cells per well, free uptake, 2,000 nM modified oligonucleotide, approximately 48 hours; RTS36584; normalized to RIBOGREEN; Yap1 mRNA relative to untreated control cells

| Substance | YAP1 (% UTC) |
| --- | --- |
| 1198638 (kA*kG*dA*dG*dT*dA*dT*dG*dT*dG*dG*d[5mC]*kA*eA*kT*eA; antisense) [Compound 1198638] | 18 |
| 1198675 (antisense k[5mC]*kA*dG*dA*dT*dT*dT*dA*dG*dG*dA*dT*kG*e[5mC]*kA*eT) [Compound 1198675] | 35 |
| 1198665 (antisense kT*kG*d[5mC]*dT*dT*dT*dG*dG*dA*dA*dG*dA*kT*e[5mC]*kT*eG) [Compound 1198665] | 38 |
| 1198669 (antisense kA*kG*dG*dA*dT*dG*d[5mC]*dA*dT*dG*dG*dT*kT*eT*kT*eT) [Compound 1198669] | 61 |
| 1198689 (antisense kA*kA*dT*dA*dT*dT*dG*d[5mC]*dA*dA*dT*d[5mC]*kT*eG*kT*e[5mC]) [Compound 1198689] | 91 |

Same assay, conditions: Table 42 (separate experiment); SNU-449 cells, 10,000 cells per well, free uptake, 2,000 nM modified oligonucleotide, approximately 48 hours; RTS36584; normalized to RIBOGREEN; Yap1 mRNA relative to untreated control cells

| Substance | YAP1 (% UTC) |
| --- | --- |
| 1095482 (antisense k[5mC]*kT*dG*dA*dG*dG*dT*dA*dT*dA*dA*d[5mC]*kT*eG*kG*eG) [Compound 1095482] | 72 |
| 1198684 (antisense kA*kA*d[5mC]*dT*d[5mC]*dT*dT*dA*dT*dA*dT*dG*kG*eT*kT*eT) [Compound 1198684] | 75 |
| 1198212 (kT*kA*dT*dT*dA*dG*dA*dG*dT*dA*dT*eG*eT*eG*kG*k[5mC]; antisense) [Compound 1198212] | 17 |
| 1198223 (k[5mC]*kT*dT*dT*dT*dA*d[5mC]*dA*dT*dT*dA*eG*eG*eA*kA*k[5mC]) [Compound 1198223] | 94 |
| 1198680 (antisense k[5mC]*kT*dT*dA*dT*dA*dT*dG*dG*dT*dT*dT*kT*eG*kT*eG) [Compound 1198680] | 28 |

Same assay, conditions: Table 43 experiment; SNU-449 cells, 10,000 cells per well, free uptake, 2,000 nM, approximately 48 hours; RTS36584; Yap1 mRNA normalized to RIBOGREEN, relative to untreated control cells

| Substance | YAP1 (% UTC) |
| --- | --- |
| 1198269 (kA*kA*dA*dG*dT*dG*dT*dA*dT*dG*dT*e[5mC]*eA*eG*kA*kA; antisense) [Compound 1198269] | 58 |

Same assay, conditions: Table 44 experiment; SNU-449 cells, 10,000 cells per well, free uptake, 2,000 nM, approximately 48 hours; RTS36584; Yap1 mRNA normalized to RIBOGREEN, relative to untreated control cells

| Substance | YAP1 (% UTC) |
| --- | --- |
| 1198520 (kT*kG*dT*dA*dA*dT*dA*dT*dT*dG*d[5mC]*eA*kA*eT*k[5mC]*eT; antisense) [Compound 1198520] | 51 |
| 1198498 (antisense kT*kT*dA*dG*dG*dA*dT*dG*d[5mC]*dA*dT*eG*kG*eT*kT*eT) [Compound 1198498] | 39 |
| 1198500 (kA*kT*dT*dT*dA*dG*dG*dA*dT*dG*d[5mC]*eA*kT*eG*kG*eT; antisense) [Compound 1198500] | 17 |
| 1198522 (kT*kA*dT*dG*dT*dA*dA*dT*dA*dT*dT*eG*k[5mC]*eA*kA*eT; antisense) [Compound 1198522] | 37 |
| 1198892 (kA*kA*dT*dT*dG*dT*d[5mC]*dT*d[5mC]*dA*dT*kG*d[5mC]*k[5mC]*dT*kT) [Compound 1198892] | 24 |
| 1198513 (k[5mC]*kA*dA*d[5mC]*dT*d[5mC]*dT*dT*dA*dT*dA*eT*kG*eG*kT*eT; antisense) [Compound 1198513] | 63 |

Same assay, conditions: Table 45; Yap1 mRNA as percent of untreated control, SNU-449 cells, single dose

| Substance | YAP1 (% UTC) |
| --- | --- |
| 1198973 (kG*kA*d[5mC]*dT*dA*dA*dG*dT*dA*dA*dG*kG*dT*kT*dT*k[5mC]; antisense) [Compound 1198973] | 53 |

Same assay, conditions: Table 46; Yap1 mRNA as percent of untreated control, SNU-449 cells, single dose

| Substance | YAP1 (% UT) |
| --- | --- |
| 1198822 (kT*kA*dT*dA*dA*d[5mC]*dT*dG*dG*dG*d[5mC]*kA*eA*kA*eT*kT; antisense) [Compound 1198822] | 97 |
| 1198865 (kA*kA*dT*dA*dT*dT*dG*d[5mC]*dA*dA*dT*k[5mC]*eT*kG*eT*k[5mC]; antisense) [Compound 1198865] | 38 |
| 1198820 (kT*kA*dT*dA*dT*dT*dA*dG*dA*dG*dT*kA*eT*kG*eT*kG; antisense) [Compound 1198820] | 62 |
| 1095425 (antisense kT*kG*dA*dG*dG*dT*dA*dT*dA*dA*d[5mC]*kT*eG*kG*eG*k[5mC]) [Compound 1095425] | 57 |
| 1198808 (antisense kG*kA*dA*dA*dT*dT*dG*dT*d[5mC]*dT*d[5mC]*kA*eT*kG*e[5mC]*k[5mC]) [Compound 1198808] | 40 |
| 1198886 (kA*k[5mC]*dT*dA*dA*dG*dT*dA*dA*dG*dG*kT*eT*kT*e[5mC]*k[5mC]; antisense) [Compound 1198886] | 45 |
| 1198842 (kG*kT*dG*d[5mC]*dT*dT*dT*dG*dG*dA*dA*kG*eA*kT*e[5mC]*kT; antisense) [Compound 1198842] | 37 |
| 1198839 (k[5mC]*kT*dT*dT*dG*dG*dA*dA*dG*dA*dT*k[5mC]*eT*kG*eA*kA; antisense) [Compound 1198839] | 36 |

Same assay, conditions: Table 48; Yap1 mRNA level relative to untreated control; modified oligonucleotides targeting SEQ ID NO.: 1 and 2

| Substance | YAP1 (% UT) |
| --- | --- |
| 1198307 (kT*kT*kA*d[5mC]*dA*dT*dT*dA*dG*dG*dA*dA*k[5mC]*eA*kA*eG; antisense) [Compound 1198307] | 49 |
| 1198298 (kT*kA*kT*dT*dA*dG*dA*dG*dT*dA*dT*dG*kT*eG*kG*e[5mC]; antisense) [Compound 1198298] | 23 |
| 1198295 (kT*kA*kG*dA*dG*dT*dA*dT*dG*dT*dG*dG*k[5mC]*eA*kA*eT; antisense) [Compound 1198295] | 15 |

Same assay, conditions: Table 49; Yap1 mRNA level relative to untreated control; modified oligonucleotides targeting SEQ ID NO.: 1 and 2

| Substance | YAP1 (% UT) |
| --- | --- |
| 1198340 (kA*kA*k[5mC]*dT*d[5mC]*dT*dT*dA*dT*dA*dT*dG*kG*eT*kT*eT; antisense) [Compound 1198340] | 123 |
| 1198553 (antisense kT*kA*kG*dA*dG*dT*dA*dT*dG*dT*dG*dG*k[5mC]*kA*kA*eT) [Compound 1198553] | 13 |

Same assay, conditions: Table 50; Yap1 mRNA remaining as percent of untreated control (UT), SNU-449 cells, single dose

| Substance | YAP1 (% UT) |
| --- | --- |
| 1197291 (k[5mC]*kT*kT*dT*mU*dA*d[5mC]*dA*dT*dT*dA*dG*dG*kA*kA*k[5mC]; antisense) [Compound 1197291] | 83 |
| 1197234 (antisense kT*kT*kA*dG*mA*dG*dT*dA*dT*dG*dT*dG*dG*k[5mC]*kA*kA) [Compound 1197234] | 24 |
| 1198620 (kA*kG*kT*dA*dA*dG*dG*dT*dT*dT*d[5mC]*d[5mC]*k[5mC]*kA*kG*eA) [Compound 1198620] | 26 |
| 1198604 (antisense kT*kA*kA*dT*dA*dT*dT*dG*d[5mC]*dA*dA*dT*k[5mC]*kT*kG*eT) [Compound 1198604] | 48 |

Same assay, conditions: Table 51; Yap1 mRNA remaining as percent of untreated control (UT), SNU-449 cells, single dose

| Substance | YAP1 (% UT) |
| --- | --- |
| 1197266 (kT*kG*kT*dA*mA*dT*dA*dT*dT*dG*d[5mC]*dA*dA*kT*k[5mC]*kT) [Compound 1197266] | 31 |
| 1200793 (kA*kG*kT*dA*dT*mG*dT*dG*dG*d[5mC]*dA*dA*dT*kA*kA*kT; antisense) [Compound 1200793] | 31 |
| 1200801 (kT*k[5mC]*kT*dA*dT*mA*dT*dT*dA*dG*dA*dG*dT*kA*kT*kG; antisense) [Compound 1200801] | 77 |

Same assay, conditions: Table 52; Yap1 mRNA, modified oligonucleotides targeting SEQ ID NO: 1 and 2

| Substance | YAP1 (% UT) |
| --- | --- |
| 1200809 (k[5mC]*kA*k[5mC]*dT*dG*mA*dG*dG*dT*dA*dT*dA*dA*k[5mC]*kT*kG; antisense) [Compound 1200809] | 69 |
| 1200868 (kT*kA*kA*dG*dT*mA*dA*dG*dG*dT*dT*dT*d[5mC]*k[5mC]*k[5mC]*kA; antisense) [Compound 1200868] | 36 |
| 1200865 (kT*kA*kA*dG*dG*mU*dT*dT*d[5mC]*d[5mC]*d[5mC]*dA*dG*kA*kT*kT; antisense) [Compound 1200865] | 54 |
| 1200856 (kT*kG*kT*dA*dT*mG*dT*d[5mC]*dA*dG*dA*dA*dG*kA*kG*kT; antisense) [Compound 1200856] | 29 |

Same assay, conditions: Yap1 mRNA, percent of untreated control; modified oligonucleotides targeting SEQ ID NO: 1 and 2; Table 47

| Substance | YAP1 (% UT) |
| --- | --- |
| 1074798 (kG*k[5mC]*kT*dT*dT*dG*dG*dA*dA*dG*dA*dT*d[5mC]*kT*kG*kA) [Compound 1074798] | 19 |
